The target in one assay is D(3) dopamine receptor (Homo sapiens, UniProt P35462).
A further assay concerns the target T1, D(4) dopamine receptor (Homo sapiens, UniProt P21917).
T1 sequence (P21917 whole entry): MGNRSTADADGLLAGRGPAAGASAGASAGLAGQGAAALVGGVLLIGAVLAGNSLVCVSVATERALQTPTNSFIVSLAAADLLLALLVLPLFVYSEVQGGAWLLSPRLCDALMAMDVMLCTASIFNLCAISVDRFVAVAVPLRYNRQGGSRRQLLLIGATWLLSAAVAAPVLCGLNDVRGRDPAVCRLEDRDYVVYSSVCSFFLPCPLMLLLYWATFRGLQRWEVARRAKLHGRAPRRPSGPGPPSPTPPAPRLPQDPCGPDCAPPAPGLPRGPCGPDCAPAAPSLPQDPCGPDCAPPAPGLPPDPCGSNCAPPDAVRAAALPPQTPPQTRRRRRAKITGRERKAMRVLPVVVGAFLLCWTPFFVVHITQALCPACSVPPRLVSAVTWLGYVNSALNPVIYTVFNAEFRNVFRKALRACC
Description: Binding affinity for human recombinant dopamine receptor D4.4.

Another assay addresses D(1A) dopamine receptor (Homo sapiens, UniProt P21728).
A further assay addresses D(1B) dopamine receptor (Homo sapiens, UniProt P21918). Put plainly: Binding affinity for human recombinant dopamine receptor D5.
The target of the next assay is D(2) dopamine receptor (Homo sapiens, UniProt P14416). Description: Binding affinity for human recombinant dopamine receptor D2L.
Sequence of D(2) dopamine receptor (P14416 whole entry): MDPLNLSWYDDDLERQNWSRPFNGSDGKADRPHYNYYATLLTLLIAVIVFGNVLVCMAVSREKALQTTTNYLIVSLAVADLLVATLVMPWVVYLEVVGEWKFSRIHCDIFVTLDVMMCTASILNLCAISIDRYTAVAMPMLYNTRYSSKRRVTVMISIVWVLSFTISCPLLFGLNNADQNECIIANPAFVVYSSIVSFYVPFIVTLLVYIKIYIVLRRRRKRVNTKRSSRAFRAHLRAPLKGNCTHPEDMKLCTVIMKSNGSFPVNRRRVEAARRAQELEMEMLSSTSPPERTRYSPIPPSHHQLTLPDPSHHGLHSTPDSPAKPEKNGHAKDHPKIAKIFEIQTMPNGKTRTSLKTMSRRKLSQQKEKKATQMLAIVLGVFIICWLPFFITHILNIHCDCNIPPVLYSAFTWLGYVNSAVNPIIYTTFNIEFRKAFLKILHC

What is called Ki is a dissociation constant, usually derived from enzyme kinetics or from competition with a known ligand.

Sequence of D(1B) dopamine receptor (P21918 whole entry): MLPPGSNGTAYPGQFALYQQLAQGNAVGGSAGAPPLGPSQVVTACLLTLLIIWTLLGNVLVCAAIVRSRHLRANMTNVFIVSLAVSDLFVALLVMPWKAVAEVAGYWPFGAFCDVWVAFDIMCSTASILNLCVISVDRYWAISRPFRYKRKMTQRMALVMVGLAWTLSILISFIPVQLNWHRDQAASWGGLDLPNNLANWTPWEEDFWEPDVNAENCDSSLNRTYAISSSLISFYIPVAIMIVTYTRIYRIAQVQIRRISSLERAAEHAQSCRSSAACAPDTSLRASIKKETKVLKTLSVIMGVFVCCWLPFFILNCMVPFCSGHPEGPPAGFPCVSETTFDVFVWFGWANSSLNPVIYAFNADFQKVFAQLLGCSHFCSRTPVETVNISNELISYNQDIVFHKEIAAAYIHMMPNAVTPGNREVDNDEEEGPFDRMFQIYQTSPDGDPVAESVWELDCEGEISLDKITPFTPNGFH
Sequence of D(3) dopamine receptor (P35462 whole entry): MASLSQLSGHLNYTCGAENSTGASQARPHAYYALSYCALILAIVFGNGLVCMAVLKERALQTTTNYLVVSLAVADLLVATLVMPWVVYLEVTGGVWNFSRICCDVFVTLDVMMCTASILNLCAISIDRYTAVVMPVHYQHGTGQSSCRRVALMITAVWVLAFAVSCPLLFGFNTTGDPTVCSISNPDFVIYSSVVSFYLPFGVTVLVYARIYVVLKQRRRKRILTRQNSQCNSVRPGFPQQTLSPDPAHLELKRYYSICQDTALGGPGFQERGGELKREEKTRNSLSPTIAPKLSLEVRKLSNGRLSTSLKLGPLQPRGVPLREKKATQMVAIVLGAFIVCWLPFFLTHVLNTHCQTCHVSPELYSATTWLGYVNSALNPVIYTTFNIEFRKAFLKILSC
Sequence of D(1A) dopamine receptor (P21728 whole entry): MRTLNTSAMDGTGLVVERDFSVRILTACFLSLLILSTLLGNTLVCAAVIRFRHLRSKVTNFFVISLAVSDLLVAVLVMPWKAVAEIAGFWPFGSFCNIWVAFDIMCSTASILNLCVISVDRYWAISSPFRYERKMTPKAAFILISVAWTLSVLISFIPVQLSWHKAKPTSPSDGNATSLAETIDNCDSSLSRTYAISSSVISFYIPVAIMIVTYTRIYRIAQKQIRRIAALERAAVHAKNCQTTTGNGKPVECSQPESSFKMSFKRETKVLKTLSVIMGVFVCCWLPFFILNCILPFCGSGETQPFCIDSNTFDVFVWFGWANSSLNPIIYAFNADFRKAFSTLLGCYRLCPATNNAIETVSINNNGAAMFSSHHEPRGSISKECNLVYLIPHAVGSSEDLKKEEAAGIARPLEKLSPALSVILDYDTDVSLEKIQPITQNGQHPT
Description for D(1A) dopamine receptor: Binding affinity for human recombinant dopamine receptor D1
Description for D(3) dopamine receptor: Binding affinity for human recombinant dopamine receptor D3

For `COc1ccc2c(c1)OCCN(C)CCc1ccccc1C2`, the Ki on D(3) dopamine receptor was 1.6 µM; on D(4) dopamine receptor, 0.546 µM; on D(1A) dopamine receptor, 0.0355 µM; at D(1B) dopamine receptor, 0.0018 µM; on D(2) dopamine receptor, 0.158 µM.

In the case of `CN1CCOc2cc(O)ccc2Cc2ccccc2CC1`, the Ki on D(3) dopamine receptor is 1.38 µM; at D(4) dopamine receptor, 0.375 µM; at D(1A) dopamine receptor, 0.0032 µM; on D(1B) dopamine receptor, 0.00057 µM; at D(2) dopamine receptor, 0.274 µM.

`c1ccc(Cc2ccccc2OCCN2CCN(c3ccccc3)CC2)cc1`: the Ki at D(3) dopamine receptor is 2.86 µM; on D(4) dopamine receptor it was over 10 µM; on D(1A) dopamine receptor it was 1.48 µM; on D(1B) dopamine receptor it was 0.62 µM; on D(2) dopamine receptor, 4.19 µM.

With `CC1CN(CCOc2ccccc2Cc2ccccc2)CCO1` (stereo not given), the Ki at D(3) dopamine receptor was over 10 µM; at D(4) dopamine receptor, over 10 µM; at D(1A) dopamine receptor it was 1.68 µM; on D(2) dopamine receptor, over 10 µM.

As for `OC(c1ccccc1)c1ccccc1OCCN1CCCC1` (stereo not given), the Ki on D(3) dopamine receptor was over 10 µM; at D(4) dopamine receptor, over 10 µM; on D(1A) dopamine receptor it was 2.62 µM; on D(2) dopamine receptor, 6.28 µM.

Regarding `c1ccc(Cc2ccccc2OCCCN2CCCC2)cc1`, the Ki was found to be 2.92 µM on D(3) dopamine receptor; 1.26 µM on D(4) dopamine receptor; 0.113 µM on D(1A) dopamine receptor; 0.113 µM on D(1B) dopamine receptor; 1.01 µM on D(2) dopamine receptor.

For `c1ccc(Cc2ccccc2NCCN2CCCC2)cc1`, the Ki on D(3) dopamine receptor was 4.65 µM; at D(4) dopamine receptor, over 10 µM; on D(1A) dopamine receptor, over 10 µM; on D(2) dopamine receptor it was over 10 µM.

Regarding `c1ccc(Cc2ccccc2OCCN2CCCCC2)cc1`, the Ki on D(3) dopamine receptor is 7.8 µM; on D(4) dopamine receptor, 4.48 µM; on D(1A) dopamine receptor, 0.0337 µM; on D(1B) dopamine receptor, 0.043 µM; at D(2) dopamine receptor, 1.02 µM.

For `O=C(c1ccccc1)c1ccccc1OCCN1CCCC1`, the Ki on D(3) dopamine receptor is 2.41 µM; on D(4) dopamine receptor, over 10 µM; on D(1A) dopamine receptor, 1.65 µM; on D(2) dopamine receptor, 5.32 µM.

For `c1ccc(Cc2ccccc2OCCN2CCOCC2)cc1`, the inhibition constant (Ki) is over 10 µM at D(3) dopamine receptor; 6.48 µM on D(4) dopamine receptor; 0.201 µM at D(1A) dopamine receptor; 0.366 µM on D(1B) dopamine receptor; over 10 µM on D(2) dopamine receptor.

With `c1ccc(Cc2ccccc2OCCN2CCCC2)cc1`, the Ki is 1.82 µM at D(3) dopamine receptor; 1.43 µM on D(4) dopamine receptor; 0.379 µM on D(1A) dopamine receptor; 0.951 µM on D(1B) dopamine receptor; over 10 µM at D(2) dopamine receptor.

Regarding `CCN(CC)CCOc1ccccc1Cc1ccccc1` [ETOLOXAMINE], the Ki was 4.67 µM at D(3) dopamine receptor, over 10 µM on D(4) dopamine receptor, 1.96 µM on D(1A) dopamine receptor and 2.02 µM at D(2) dopamine receptor.

As to `CN(C)CCOc1ccccc1Cc1ccccc1` [PHENYLTOLOXAMINE], the Ki on D(3) dopamine receptor is over 10 µM; on D(4) dopamine receptor, 2.77 µM; at D(1A) dopamine receptor, 0.343 µM; on D(1B) dopamine receptor, 0.414 µM; at D(2) dopamine receptor, 2.74 µM.

The values above are taken from ChEMBL document CHEMBL1138672, “Dopamine/serotonin receptor ligands. 9. Oxygen-containing midsized heterocyclic ring systems and nonrigidized analogues. A step toward dopamine D5 receptor selectivity” (J Med Chem, 2004).
